Test results reported in patent publication US10273237B2, “Imidazopyridazine compounds useful as modulators of IL-12, IL-23 and/or IFN-α responses” (BRISTOL-MYERS SQUIBB COMPANY, priority 2013, dated 2019).
Where two headings read alike, the source gives them in different places.

Assays:
[1] = tested on: IL-23-stimulated Kit225 T cells with STAT-dependent luciferase reporter; assay: Kit225 T cell assay, STAT-dependent luciferase reporter, IL-23 stimulated; type: cell-based, human; conditions: read-out: IL-23 Kit225 Reporter, LE (IC50)
Procedure: (§1) Kit225 T cells with a stably-integrated STAT-dependent luciferase reporter were plated in RPMI (GIBCO) containing 10% heat-inactivated FBS (GIBCO) and 100 U/mL PenStrep (GIBCO). The cells were then stimulated with either 20 ng/mL human recombinant IL-23 or 200 U/mL human recombinant IFNα (PBL InterferonSource) for 5-6 hours. Luciferase expression was measured using the STEADY-GLO® Luciferase Assay System (PROMEGA®) according to the manufacturer's instructions.

[2] = tested on: IFNα-stimulated Kit225 T cells with STAT-dependent luciferase reporter; assay: Kit225 T cell assay, STAT-dependent luciferase reporter, IFNα stimulated; type: cell-based, human; conditions: 5-6 hours, read-out: IFNa Kit225 Reporter, LE (IC50)
Procedure: as §1

[3] = 20 ng/mL human recombinant IL-23, 5-6 hours
[4] = 200 U/mL human recombinant IFNα
[5] = Homo sapiens, KIT225, 20 ng/mL human recombinant IL-23, 5-6 hours
[6] = Homo sapiens, KIT225, 200 U/mL human recombinant IFNα

IC50 [1, 3] | IC50 [2, 4] | IC50 [1, 5] | IC50 [2, 6] | Compound
360 nM | 120 nM | – | – | CNc1cc(Nc2cccn(-c3ccccc3F)c2=O)nn2c(C(=O)NC3CC3)cnc12 [Example 152]
320 nM | 90 nM | – | – | CCC(C)NC(=O)c1cnc2c(NC)cc(Nc3cccn(-c4cccnn4)c3=O)nn12 (stereo not shown) [Example 105]
– | – | 610 nM | 420 nM | CNc1cc(Nc2cccn(-c3cnccn3)c2=O)nn2c(C(=O)NC3CCC(O)C3(C)C)cnc12 (stereo not shown) [compound 259]
40 nM | 40 nM | – | – | CNc1cc(Nc2cccn(-c3cccc(C(C)(C)O)n3)c2=O)nn2c(C(=O)N[C@@H]3C[C@@H]3F)cnc12 [Example 82]
– | – | 350 nM | 400 nM | CNc1cc(Nc2cccn(C3CCN(C(C)=O)CC3)c2=O)nn2c(C(=O)NC3C[C@@H]3F)cnc12 (stereo partly shown) [Example 251]
640 nM | 310 nM | – | – | CNc1cc(Nc2cccn(C)c2=O)nn2c(C(=O)NC(C)(C)C#N)cnc12 [Example 130]
– | – | 180 nM | 70 nM | CNc1cc(Nc2cccn(-c3ccc(C(=O)N(C)C)cn3)c2=O)nn2c(C(=O)N[C@@H]3C[C@@H]3F)cnc12 [Example 257, 6-((5′-(Dimethylcarbamoyl)-2-oxo-2H-[1,2′-bipyridin]-3-yl)amino)-N-((1R,2S)-2-fluorocyclopropyl)-8-(methylamino)imidazo[1,2-b]pyridazine-3-carboxamide]
– | – | 290 nM | 120 nM | CCCCn1cc(Cl)cc(Nc2cc(NC)c3ncc(C(=O)NC4CC4)n3n2)c1=O [Example 244]
150 nM | 120 nM | – | – | CNc1cc(Nc2cccn(-c3ccc(F)cc3)c2=O)nn2c(C(=O)NC3CC3)cnc12 [Example 10]
230 nM | 270 nM | – | – | CCNC(=O)c1cnc2c(NC)cc(Nc3cccn(-c4ccn(C)n4)c3=O)nn12 [Example 107]
480 nM | 570 nM | – | – | CNc1cc(Nc2ccnn(-c3ccccc3)c2=O)nn2c(C(=O)NC3CC3)cnc12 [Example 179]
120 nM | 280 nM | – | – | CNc1cc(Nc2cccn(-c3ccccc3)c2=O)nn2c(C(=O)NC3(C#N)CCC3)cnc12 [Example 148]
90 nM | 100 nM | – | – | CNc1cc(Nc2cccn(C(C)C)c2=O)nn2c(C(=O)NCC(C)(C)CO)cnc12 [Example 217]
– | – | 360 nM | 290 nM | CNc1cc(Nc2cccn(-c3ccc(C(=O)N(C)C)cc3)c2=O)nn2c(C(=O)NCC(C)(C)CO)cnc12 [compound 267]
– | – | 160 nM | 50 nM | CCN(C)C(=O)c1ccc(-n2cccc(Nc3cc(NC)c4ncc(C(=O)N[C@@H]5C[C@@H]5F)n4n3)c2=O)nc1 [compound 263]
– | – | 280 nM | 230 nM | CNc1cc(Nc2cccn(C3CCN(C(=O)C4CC4(F)F)CC3)c2=O)nn2c(C(=O)NC3CC3)cnc12 (stereo not shown) [Example 248]
60 nM | 40 nM | – | – | CNc1cc(Nc2cccn(-c3ccc(C)nn3)c2=O)nn2c(C(=O)N[C@@H]3C[C@@H]3F)cnc12 [Example 65]
240 nM | 180 nM | – | – | CNc1cc(Nc2cccn(C3CCC3)c2=O)nn2c(C(=O)NC3(C#N)CC3)cnc12 [Example 229]
70 nM | 60 nM | – | – | CNc1cc(Nc2cc(F)cn(-c3ccccn3)c2=O)nn2c(C(=O)NC3CC3)cnc12 [Example 149]

IC50 [1, 3] | IC50 [2, 4] | IC50 [1, 5] | IC50 [2, 6] | Compound
190 nM | 130 nM | – | – | CNc1cc(Nc2cccn(C(C)(C)C)c2=O)nn2c(C(=O)NC3CC3)cnc12 [Example 218]
240 nM | 150 nM | – | – | CNc1cc(Nc2cccn(C)c2=O)nn2c(C(=O)NCC(C)(C)CO)cnc12 [Example 117]
60 nM | 20 nM | – | – | CNc1cc(Nc2cc(F)cn(-c3ccccn3)c2=O)nn2c(C(=O)NC3CCC3)cnc12 [Example 150]
650 nM | 250 nM | – | – | CNc1cc(Nc2cccn(C3(C)CC3)c2=O)nn2c(C(=O)NC3(C#N)CC3)cnc12 [Example 162]
– | – | 100 nM | 390 nM | CNc1cc(Nc2cccn(C3CCN(CC(F)F)CC3)c2=O)nn2c(C(=O)NC3CC3)cnc12 [Example 250]
160 nM | 150 nM | – | – | CNc1cc(Nc2cccn(-c3ccc(C)nn3)c2=O)nn2c(C(=O)NC3CCCC3)cnc12 [Example 95]
– | – | 270 nM | 300 nM | CNc1cc(Nc2cccn(-c3ccccc3)c2=O)nn2c(C(=O)N[C@@H]3CCOC3)cnc12 [Example 7, (R)-8-(Methylamino)-6-((2-oxo-1-phenyl-1,2-dihydropyridin-3-yl)amino)-N-(tetrahydrofuran-3-yl)imidazo[1,2-b]pyridazine-3-carboxamide]
490 nM | 380 nM | – | – | CNc1ccc(-n2cccc(Nc3cc(NC)c4ncc(C(=O)NC5CC5)n4n3)c2=O)cn1 [Example 206]
410 nM | 560 nM | – | – | CCC(C)NC(=O)c1cnc2c(NC)cc(Nc3cncn(-c4ccccn4)c3=O)nn12 (single isomer, unassigned) [Example 76]
600 nM | 300 nM | – | – | CNc1cc(Nc2cccn(-c3ccc(F)nc3)c2=O)nn2c(C(=O)NC3(C#N)CC3)cnc12 [Example 28]
220 nM | 160 nM | – | – | CNc1cc(Nc2cncn(-c3cccc(C(C)O)n3)c2=O)nn2c(C(=O)NC3CCC3)cnc12 (racemic) [Example 87]
250 nM | 70 nM | – | – | CNc1cc(Nc2cccn(C(C)(C)C)c2=O)nn2c(C(=O)NC3(C#N)CC3)cnc12 [Example 219]
680 nM | 470 nM | – | – | CNc1cc(Nc2cccn(C3CCC(N4CCOCC4)CC3)c2=O)nn2c(C(=O)NC3CC3)cnc12 (stereo not shown) [Example 224]
170 nM | 80 nM | – | – | CNc1cc(Nc2cccn(-c3cccc(F)c3)c2=O)nn2c(C(=O)NC3(C#N)CC3)cnc12 [Example 53]
270 nM | 110 nM | – | – | CNc1cc(Nc2cccn(-c3ccc(C(C)(C)O)cc3)c2=O)nn2c(C(=O)NC3CC3)cnc12 [Example 26]
50 nM | 20 nM | – | – | CNc1cc(Nc2cccn(-c3ncccc3F)c2=O)nn2c(C(=O)N[C@@H]3C[C@@H]3F)cnc12 [Example 42]
60 nM | 50 nM | – | – | CNc1cc(Nc2cccn(-c3ccccn3)c2=O)nn2c(C(=O)NC3CCC3)cnc12 [Example 34]
290 nM | 140 nM | – | – | CNc1cc(Nc2cccn(-c3ccc(C(F)(F)F)cc3)c2=O)nn2c(C(=O)NC3(C#N)CC3)cnc12 [Example 137]
50 nM | 30 nM | – | – | CNc1cc(Nc2cccn(-c3cc(C)n(C)n3)c2=O)nn2c(C(=O)N[C@@H]3C[C@@H]3F)cnc12 [Example 160]

IC50 [1, 3] | IC50 [2, 4] | IC50 [1, 5] | IC50 [2, 6] | Compound
180 nM | 230 nM | – | – | CNc1cc(Nc2cccn(-c3ncccn3)c2=O)nn2c(C(=O)N[C@@H]3C[C@@H]3F)cnc12 [Example 55]
280 nM | 520 nM | – | – | CNc1cc(Nc2cccn(-c3cccnn3)c2=O)nn2c(C(=O)NCC(C)C)cnc12 [Example 112]
110 nM | 60 nM | – | – | CNc1cc(Nc2cccn(-c3nnc(C)s3)c2=O)nn2c(C(=O)N[C@@H]3C[C@@H]3F)cnc12 [Example 195]
– | – | 200 nM | 220 nM | CNc1cc(Nc2cccn(C3CCN(C(=O)C4(C(F)(F)F)CC4)CC3)c2=O)nn2c(C(=O)NC3CC3)cnc12 [Example 246]
370 nM | 200 nM | – | – | CNc1cc(Nc2cccn(C3CC3)c2=O)nn2c(C(=O)NC3(C#N)CC3)cnc12 [Example 45]
80 nM | 40 nM | – | – | CNc1cc(Nc2cccn(-c3ccn(C)n3)c2=O)nn2c(C(=O)N[C@@H]3C[C@@H]3F)cnc12 [Example 169]
40 nM | 30 nM | – | – | CNc1cc(Nc2cccn(-c3cc(C)n(C)n3)c2=O)nn2c(C(=O)NC3CC3)cnc12 [Example 154]
160 nM | 50 nM | – | – | CNc1cc(Nc2cccn(-c3ccc(F)nc3)c2=O)nn2c(C(=O)N[C@@H]3C[C@@H]3F)cnc12 [Example 40]
– | – | 420 nM | 350 nM | CNc1cc(Nc2cccn(C3CCN(C(=O)C4CCCO4)CC3)c2=O)nn2c(C(=O)NC3CC3)cnc12 (stereo not shown) [Example 247]
360 nM | 160 nM | – | – | CNc1cc(Nc2cccn(-c3cccc(C)n3)c2=O)nn2c(C(=O)NC3CC3)cnc12 [Example 46]
710 nM | 340 nM | – | – | CNc1cc(Nc2cccn(C3(C)CC3)c2=O)nn2c(C(=O)NC3CC3)cnc12 [Example 161]
440 nM | 160 nM | – | – | CNc1cc(Nc2cccn(C)c2=O)nn2c(C(=O)NC(C)C#N)cnc12 (stereo not shown) [Example 129]
230 nM | 190 nM | – | – | CNc1cc(Nc2cccn(-c3ccccc3)c2=O)nn2c(C(=O)NC3CCCC3O)cnc12 (stereo not shown) [Example 189]
170 nM | 280 nM | – | – | CNc1cc(Nc2cccn(C3CCOC3)c2=O)nn2c(C(=O)NC3CC3)cnc12 (stereo not shown) [Example 220]
220 nM | 390 nM | – | – | CCNC(=O)c1cnc2c(NC)cc(Nc3cccn(C)c3=O)nn12 [Example 210]
60 nM | 530 nM | – | – | CNc1cc(Nc2cccn(-c3cncc(C)n3)c2=O)nn2c(C(=O)NCC(C)(C)CO)cnc12 [Example 238]
– | – | 170 nM | 360 nM | CC(C)(CO)CNC(=O)c1cnc2c3c(c(Nc4cccn(-c5ccccn5)c4=O)nn12)OCCN3 [Example 242]
100 nM | 100 nM | – | – | CNc1cc(Nc2cccn(-c3ccc(F)cn3)c2=O)nn2c(C(=O)NC3CC3)cnc12 [Example 36]
